Measurements reported in publication PMC10623575, “Discovery of Potent and Selective CB2 Agonists Utilizing a Function-Based Computational Screening Protocol” (ACS Chemical Neuroscience, 2023).
Read-outs that look alike come from different tables or passages of the source.

What was measured:
CB1 receptor = CB1 receptor (Homo sapiens, UniProt P21554); assay: Calcium mobilization assay, agonist mode, CHO expressing CB1 and Gα16; type: cell-based
Experimental: (§1) Chinese hamster ovarian (CHO) cells collected from the American Type Culture Collection were maintained in Ham’s F-12K (Kaighn’s) supplemented with 100 mg/L streptomycin, 100 mg/L penicillin, and 10% fetal bovine serum (FBS) in a humidified atmosphere of 5% CO2 at 37 °C. CHO cells were co-transfected with plasmids encoding CB1 or CB2 and Gα16 by electroporation. To establish stable cell lines, transfected cells were seeded on 10 cm dishes with 40 μg/mL blasticidin and 1 mg/mL G418 in culture medium after 24 h. The selection medium was substituted once every 3 days until colonies formed. A solitary colony was obtained, propagated, and assessed using a calcium mobilization assay to verify the function and expression of the transfected genes.
(§2) 3 × 10^4 cells/well were employed to seed cells onto 96-well plates, which were subsequently incubated throughout the night. […] For antagonist mode, the extra dye was washed out and 50 μL of HBSS with test compounds, DMSO (negative control), or AM630 (positive control) was introduced. […] To be noticed, each experiment has been independently replicated three times, with three repetitions and eight gradients each time.
(§3) The collected data were processed with GraphPad Prism software (GraphPad). […] Means ± SEM were computed utilizing this software. The analyses were evaluated by the Student t test. When the p value is smaller than 0.05, the result is statistically significant.

CB2 receptor = target: T1, CB2 receptor (Homo sapiens, UniProt P34972); assay: Calcium mobilization assay, agonist mode, CHO expressing CB2 and Gα16; type: cell-based; details: for SI, selectivity index for the CB2, SI = EC50(CB1)/EC50(CB2): agonist mode; for CB1 and CB2 biological activity (in words): CB1 and CB2 calcium mobilization assays, up to 10 μM
T1 construct: expressed in transfected cells
T1 sequence (P34972 whole entry): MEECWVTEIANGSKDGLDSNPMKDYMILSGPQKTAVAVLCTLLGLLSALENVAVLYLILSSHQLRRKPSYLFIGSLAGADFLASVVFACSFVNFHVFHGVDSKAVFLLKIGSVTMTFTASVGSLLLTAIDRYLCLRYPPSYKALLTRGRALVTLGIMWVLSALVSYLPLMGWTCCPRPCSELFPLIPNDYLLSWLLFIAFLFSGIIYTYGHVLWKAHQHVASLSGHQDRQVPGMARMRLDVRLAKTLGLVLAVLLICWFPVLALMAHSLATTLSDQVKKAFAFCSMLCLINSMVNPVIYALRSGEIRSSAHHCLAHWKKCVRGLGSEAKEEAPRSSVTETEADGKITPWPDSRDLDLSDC
Experimental: as §1, §2, §3

[1] = agonist activity, CHO expressing CB1, mean ± SEM, read-out: CB1 EC50
[2] = agonist activity, CHO expressing CB2, three independent assays, mean ± SEM, read-out: CB2 EC50
[3] = single independent experiment, replicate 1, read-out: CB2 agonist(μM) replicate 1
[4] = single independent experiment, replicate 2, read-out: CB2 agonist(μM) replicate 2
[5] = single independent experiment, replicate 3, read-out: CB2 agonist(μM) replicate3

Chain of CB1 receptor (P21554 whole entry): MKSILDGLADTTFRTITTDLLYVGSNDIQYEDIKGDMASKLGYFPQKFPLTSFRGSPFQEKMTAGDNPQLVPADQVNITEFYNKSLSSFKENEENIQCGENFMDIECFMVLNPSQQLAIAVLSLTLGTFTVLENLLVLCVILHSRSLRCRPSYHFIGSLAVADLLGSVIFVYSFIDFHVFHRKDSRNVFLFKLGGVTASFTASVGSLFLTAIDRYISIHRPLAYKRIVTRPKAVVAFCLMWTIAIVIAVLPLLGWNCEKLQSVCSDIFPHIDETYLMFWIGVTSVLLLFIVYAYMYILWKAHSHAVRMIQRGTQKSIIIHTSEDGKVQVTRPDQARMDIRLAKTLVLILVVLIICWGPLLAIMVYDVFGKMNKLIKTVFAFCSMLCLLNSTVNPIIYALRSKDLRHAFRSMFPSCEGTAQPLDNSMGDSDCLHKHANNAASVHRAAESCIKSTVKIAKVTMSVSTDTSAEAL

Structure (SMILES)	EC50 (CB1 receptor; [1]) [µM]	EC50 (CB2 receptor; [2]) [µM]	SI, selectivity index for the CB2, SI = EC50(CB1)/EC50(CB2) (CB2 receptor)	EC50 (CB2 receptor; [3]) [µM]	EC50 (CB2 receptor; [4]) [µM]	EC50 (CB2 receptor; [5]) [µM]	further results
CC(C)N1C(=O)SC(=Cc2ccccc2OCc2ccccc2C#N)C1=O [Compound 1, 2-((2-((3-Isopropyl-2,4-dioxothiazolidin-5-ylidene)methyl)phenoxy)methyl) Benzonitrile]	> 10	3.12 ± 2.22	>3	1.75	7.47	0.139	bioactivity against CB1 (in words) (CB1 receptor; 10 μM): no bioactivity; response against CHO–CB2 by calcium assay (CB2 receptor; 10 μM): > 40%
CC(C)CN1C(=O)SC(=Cc2ccccc2OCc2ccccc2C#N)C1=O [Compound 2, 2-((2-((3-Isobutyl-2,4-dioxothiazolidin-5-ylidene)methyl)phenoxy)methyl) Benzonitrile]	> 10	3.22 ± 2.67	>3	0.43	8.56	0.68	–
CCCN1C(=O)SC(=Cc2ccccc2OCc2ccccc2C#N)C1=O [Compound 3, 2-((2-((2,4-Dioxo-3-propylthiazolidin-5-ylidene)methyl)phenoxy)methyl) Benzo Nitrile]	> 10	> 10	–	–	–	–	–
CCCCN1C(=O)SC(=Cc2ccccc2OCc2ccccc2C#N)C1=O [Compound 4, 2-((2-((3-Butyl-2,4-dioxothiazolidin-5-ylidene)methyl)phenoxy)methyl)benzo Nitrile]	> 10	> 10	–	–	–	–	–
N#Cc1ccccc1COc1ccccc1C=C1SC(=O)N(C2CCCC2)C1=O [Compound 5, 2-((2-((3-Cyclopentyl-2,4-dioxothiazolidin-5-ylidene)methyl)phenoxy)methyl) Benzonitrile]	> 10	2.26 ± 0.48	>4	1.67	1.92	3.2	–
CC(C)N1C(=O)SC(=Cc2ccccc2OCc2ccccc2F)C1=O [Compound 6, 5-(2-((2-Fluorobenzyl)oxy)benzylidene)-3-isopropylthiazolidine-2,4-dione]	> 10	0.37 ± 0.26	>27	0.188	0.026	0.886	–
CC(C)N1C(=O)SC(=Cc2ccccc2OCc2cccc(Br)c2)C1=O [Compound 7, 5-(2-((3-Bromobenzyl)oxy)benzylidene)-3-isopropylthiazolidine-2,4-dione]	> 10	> 10	–	–	–	–	CB1 and CB2 biological activity (in words) (CB2 receptor): do not show biological activities
CC(C)N1C(=O)SC(=Cc2ccccc2OCCN2CCOCC2)C1=O [Compound 8, 3-Isopropyl-5-(2-(2-morpholinoethoxy)benzylidene) Thiazolidine-2,4-dione]	–	–	8	–	–	–	EC50 (CB1 receptor; CB1 EC50, agonist activity, CHO expressing CB1, mean ± SEM): 0.75 ± 0.48 µM; EC50 (CB1 receptor; CB1 agonist(μM) replicate 1, single independent experiment, replicate 1): 0.455 µM; EC50 (CB1 receptor; CB1 agonist(μM) replicate 2, single independent experiment, replicate 2): 0.109 µM; EC50 (CB1 receptor; CB1 agonist(μM) replicate3, single independent experiment, replicate 3): 1.7 µM; EC50 (CB2 receptor; CB2 EC50, agonist activity, CHO expressing CB2, three independent assays, mean ± SEM): 0.09 ± 0.07 µM; EC50 (CB2 receptor; CB2 agonist(μM) replicate 1, single independent experiment, replicate 1): 0.227 µM; EC50 (CB2 receptor; CB2 agonist(μM) replicate 2, single independent experiment, replicate 2): 0.026 µM; EC50 (CB2 receptor; CB2 agonist(μM) replicate3, single independent experiment, replicate 3): 0.022 µM
COc1cc(COc2ccccc2C=C2SC(=O)N(C(C)C)C2=O)cc(OC)c1 [Compound 9, 5-(2-((3,5-Dimethoxybenzyl)oxy)benzylidene)-3-isopropylthiazolidine-2,4-dione]	> 10	> 10	–	–	–	–	CB1 and CB2 biological activity (in words) (CB2 receptor): do not show biological activities
CC(C)CN1C(=O)SC(=Cc2ccccc2OCc2ccccc2F)C1=O [Compound 10, 5-(2-((2-Fluorobenzyl)oxy)benzylidene)-3-isobutylthiazolidine-2,4-dione]	> 10	1.6 ± 0.21	>6	1.78	1.18	1.83	–
COc1cc(COc2ccccc2C=C2SC(=O)N(CC(C)C)C2=O)cc(OC)c1 [Compound 11, 5-(2-((3,5-Dimethoxybenzyl)oxy)benzylidene)-3-isobutylthiazolidine-2,4-dione]	> 10	> 10	–	–	–	–	–
O=C1SC(=Cc2ccccc2OCc2ccccc2F)C(=O)N1C1CCCC1 [Compound 12, 3-Cyclopentyl-5-(2-((2-fluorobenzyl)oxy)benzylidene)thiazolidine-2,4-dione]	> 10	> 10	–	–	–	–	CB1 and CB2 biological activity (in words) (CB2 receptor): no bioactivity
CC(C)CN1C(=O)SC(=Cc2ccccc2OC(=O)c2ccccc2F)C1=O [Compound 13, 2-((3-Isobutyl-2,4-dioxothiazolidin-5-ylidene)methyl)phenyl 2-Fluorobenzoate]	> 10	1.78 ± 0.25	>5	1.66	2.26	1.44	–

Now from value to molecule, other results behind:

EC50 (CB1 receptor; [1]) [µM]	EC50 (CB2 receptor; [2]) [µM]	SI, selectivity index for the CB2, SI = EC50(CB1)/EC50(CB2) (CB2 receptor)	EC50 (CB2 receptor; [3]) [µM]	EC50 (CB2 receptor; [4]) [µM]	EC50 (CB2 receptor; [5]) [µM]	Structure (SMILES)	further results
> 10	> 10	–	–	–	–	CCCCCCCC(=O)Oc1ccccc1C=C1SC(=O)N(CC(C)C)C1=O [Compound 14, 2-((3-Isobutyl-2,4-dioxothiazolidin-5-ylidene)methyl) Phenyl Octanoate]	–
> 10	1.58 ± 1.12	>6	0.486	3.82	0.43	CC(C)CN1C(=O)SC(=Cc2ccccc2OC(=O)N2CCOCC2)C1=O [Compound 15, 2-((3-Isobutyl-2,4-dioxothiazolidin-5-ylidene)methyl)phenyl Morpholine-4-carboxylate]	–
> 10	1.51 ± 0.29	>6	0.949	1.89	1.69	CC(C)CN1C(=O)S/C(=C\c2ccccc2OC(=O)C(C)(C)CCl)C1=O [Compound 16, 2-((3-Isobutyl-2,4-dioxothiazolidin-5-ylidene)methyl) Phenyl 3-Chloro-2,2-dimethylpropanoate]	–
> 10	0.66 ± 0.34	>15	0.166	1.31	0.489	CC(C)N1C(=O)SC(=Cc2ccccc2OC(=O)N2CCOCC2)C1=O [Compound 17, 2-((3-Isopropyl-2,4-dioxothiazolidin-5-ylidene)methyl)phenyl Morpholine-4-carboxylate]	–
> 10	3.64 ± 1.14	>2	4.96	4.58	1.38	CC(C)N1C(=O)S/C(=C\c2ccccc2OC(=O)c2ccccc2F)C1=O [Compound 18, 2-((3-Isopropyl-2,4-dioxothiazolidin-5-ylidene)methyl) Phenyl 2-Fluoro Benzoate]	–
> 10	> 10	–	–	–	–	CC(C)N1C(=O)S/C(=C\c2ccccc2OC(=O)C23CC4CC(CC(C4)C2)C3)C1=O [Compound 19, 2-((3-Isopropyl-2,4-dioxothiazolidin-5-ylidene) Methyl) Phenyl (3r,5r,7r)-Adamantane-1-carboxylate]	–
> 10	> 10	–	–	–	–	CCCCCCCC(=O)Oc1ccccc1/C=C1\SC(=O)N(C(C)C)C1=O [Compound 20, 2-((3-Isopropyl-2,4-dioxothiazolidin-5-ylidene) Methyl) Phenyl Octanoate]	–
> 10	2.33 ± 0.45	>4	1.46	2.61	2.93	CC(C)N1C(=O)SC(=Cc2ccccc2OC(=O)C(C)(C)CCl)C1=O [Compound 21, 2-((3-Isopropyl-2,4-dioxothiazolidin-5-ylidene)methyl)phenyl 3-Chloro-2,2-dimethylpropanoate]	–
> 10	4.12 ± 1.31	>2	2.19	6.61	3.56	CC(C)N1C(=O)SC(=Cc2ccccc2OC(=O)C2CC2)C1=O [Compound 22, 2-((3-Isopropyl-2,4-dioxothiazolidin-5-ylidene)methyl)phenyl Cyclopropane Carboxylate]	–
> 10	0.82 ± 0.41	>12	0.225	0.638	1.6	CC(C)N1C(=O)SC(=Cc2ccccc2OC(=O)C2CCCCCC2)C1=O [Compound 23, 2-((3-Isopropyl-2,4-dioxothiazolidin-5-ylidene)methyl)phenyl Cycloheptane Carboxylate]	–
> 10	3.93 ± 1.97	>2	7.84	2.4	1.54	CC(C)N1C(=O)SC(=Cc2ccccc2OC(=O)c2ccc(Cl)nc2)C1=O [Compound 24, 2-((3-Isopropyl-2,4-dioxothiazolidin-5-ylidene)methyl)phenyl 6-Chloronico Tinate]	–
